Measurements reported in US6399593B1, “Cyclic regimens using cyclic urea and cyclic amide derivatives” (Wyeth, priority 1999, dated 2002).
pEC50: −log10 of the molar value.

System: T47D cells
Experiment: T47D cell proliferation assay (BrdU incorporation)
Type: cell-based
Conditions: second print headed Table 3, individual studies (Exp 1-3)
Experimental: The objective of this assay is the determination of progestational and antiprogestational potency by using a cell proliferation assay in T47D cells. A compound's effect on DNA synthesis in T47D cells is measured.
DMEM:F12 (1:1) (GIBCO, BRL) supplemented with 10% (v/v) fetal bovine serum (not heat-inactivated), 100 U/ml penicillin, […], and 2 mM GlutaMax (GIBCO, BRL).
Minimum Essential Medium (MEM) (#51200-038GIBCO, BRL) phenol red-free supplemented with 0.5% charcoal stripped fetal bovine serum, 100 U/ml penicillin, 200 mg/ml streptomycin, and 2 mM GlutaMax (GIBCO, BRL).
Stock T47D cells are maintained in growth medium. For BrdU incorporation assay, cells are plated in 96-well plates (Falcon, Becton Dickinson Labware) at 10,000 cells/well in growth medium. […]
At the end of BrdU labeling, the medium is removed and BrdU incorporation is measured using a cell proliferation ELISA kit (#RPN 250, Amersham Life Science) according to manufacturer's instructions. […] Then 25 μl of 1 M sulfuric acid is added to each well to stop color reaction and optical density is read in a plate reader at 450 nm within 5 min.
Square root-transformed data are used for analysis of variance and nonlinear dose response curve fitting for both agonist and antagonist modes. […] EC50 or IC50 values are calculated from the retransformed values. […]

SMILES: CC(=O)O[C@]1(C(C)=O)CC[C@H]2[C@@H]3C[C@H](C)C4=CC(=O)CC[C@]4(C)[C@H]3CC[C@@]21C [MPA, medroxyprogesterone acetate]
- pEC50: 10.77
